# Reference: patent US6232070A, “Pharmacological targeting of mRNA cap formation” (priority 1999, dated 2001)
# Assays:
# Hcm1p = target: T1, Hcm1p (Homo sapiens, UniProt O43148); test: Cap methyltransferase activity of recombinant Hcm1p, methylation of cap-labeled poly(A); format: biochemical
# T1 construct: Δ120 retained 50% of the activity of full-length Hcm1p; His-tag (histidine-rich leader segment, pET16b) (N); made in house; host or cells: Escherichia coli BL21(DE3)
# LEF-4 = LEF-4 (Autographa californica nuclear polyhedrosis virus, UniProt P41477); details: reported value; read-out: Km for ATP; cited from earlier work
# vaccinia triphosphatase = vaccinia triphosphatase (Vaccinia virus, UniProt P04298); details: reported value; read-out: Km for ATP; cited from earlier work
# Mce1(1-210)p = target: T2, Mce1(1-210)p (Mus musculus, UniProt O55236); details: at 0.5 mM divalent cation; 50 mM Tris buffer; cited from earlier work
# T2 construct: The N-terminal portion of Mce1p from residues 1-210 is an autonomous RNA triphosphatase domain; made in house; host or cells: bacteria
# T2 sequence (O55236 1-210): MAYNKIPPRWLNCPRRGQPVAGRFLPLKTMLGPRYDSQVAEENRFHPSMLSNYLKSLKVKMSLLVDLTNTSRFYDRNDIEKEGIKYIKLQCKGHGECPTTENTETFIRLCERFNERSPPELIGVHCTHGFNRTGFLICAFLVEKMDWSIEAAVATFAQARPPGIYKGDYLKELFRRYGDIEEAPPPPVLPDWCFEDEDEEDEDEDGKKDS
# T1 sequence (O43148 whole entry): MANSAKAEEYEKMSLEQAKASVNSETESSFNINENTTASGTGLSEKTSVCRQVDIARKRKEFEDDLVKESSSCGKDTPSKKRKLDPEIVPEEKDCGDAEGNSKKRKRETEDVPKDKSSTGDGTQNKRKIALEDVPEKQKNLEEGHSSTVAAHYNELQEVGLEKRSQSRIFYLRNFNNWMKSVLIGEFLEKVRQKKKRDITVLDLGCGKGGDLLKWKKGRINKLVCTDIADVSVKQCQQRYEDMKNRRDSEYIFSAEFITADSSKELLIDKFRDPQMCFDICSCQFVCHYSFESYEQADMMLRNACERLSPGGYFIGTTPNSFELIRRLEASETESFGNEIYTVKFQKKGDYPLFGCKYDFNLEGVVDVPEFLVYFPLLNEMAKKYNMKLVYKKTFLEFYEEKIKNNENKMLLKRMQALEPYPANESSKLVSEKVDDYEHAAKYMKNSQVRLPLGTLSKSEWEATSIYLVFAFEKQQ
# Chain of LEF-4 (P41477 whole entry): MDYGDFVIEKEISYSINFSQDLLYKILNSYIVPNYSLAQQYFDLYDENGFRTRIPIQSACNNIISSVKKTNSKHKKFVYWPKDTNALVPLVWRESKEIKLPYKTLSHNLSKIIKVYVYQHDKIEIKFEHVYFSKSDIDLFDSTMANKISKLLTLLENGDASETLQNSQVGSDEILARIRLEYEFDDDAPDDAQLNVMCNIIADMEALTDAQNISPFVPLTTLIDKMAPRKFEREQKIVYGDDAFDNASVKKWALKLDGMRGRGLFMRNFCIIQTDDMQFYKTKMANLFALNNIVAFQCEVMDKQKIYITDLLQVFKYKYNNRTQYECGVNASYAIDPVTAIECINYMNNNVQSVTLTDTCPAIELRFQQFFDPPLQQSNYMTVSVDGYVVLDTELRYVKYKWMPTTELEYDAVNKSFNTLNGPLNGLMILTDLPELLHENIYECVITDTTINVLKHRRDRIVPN
smiles,measurement,setting,value
"Nc1ncnc2c1ncn2[C@@H]1O[C@H](CSCC[C@H](N)C(=O)O)[C@@H](O)[C@H]1O [AdoHcy, S-adenosylhomocysteine]",effect on cap methylation in the presence of AdoMet,"Hcm1p; 500 μM AdoHcy plus 50 μM AdoMet (FIG. 9, lane 4)",partially inhibitory
"C[S+](CC[C@H](N)C(=O)O)C[C@H]1O[C@@H](n2cnc3c(N)ncnc32)[C@H](O)[C@@H]1O (stereo partly shown) [AdoMet, S-adenosylmethionine]",Km,"Hcm1p; read-out: AdoMet concentration giving half-maximal activity, cap methylation as a function of AdoMet concentration",~25 µM
Nc1ncnc2c1ncn2[C@@H]1O[C@H](COP(=O)(O)OP(=O)(O)OP(=O)(O)O)[C@@H](O)[C@H]1O [ATP],Km,LEF-4,43 µM
same,Km,vaccinia triphosphatase,800 µM
[Cl-].[Cl-].[Mg+2] [MgCl2],reduction of methylation,Hcm1p; 1 mM magnesium,an order of magnitude
same,inhibition of RNA triphosphatase activity,Mce1(1-210)p,75%
[Cl][Mn][Cl] [MnCl2],inhibition of RNA triphosphatase activity,Mce1(1-210)p,75%
